Target: dephosphorylated BTK (Homo sapiens (Human), UniProt Q06187)
Experiment: BTK Activity Inhibition Test (mobility shift assay)
Assay type: biochemical
Settings: 200 μM ATP, read-out: Inhibitory Activity on BTK
Procedure: Dephosphorylated BTK was obtained by adding λ protein phosphatase (manufactured by New England BioLabs Inc., Code No. P0753S) and MnCl2 at 10 U/μg and 2 mM, respectively, to biotinylated BTK protein BTN-BTK (Manufactured by Carna Biosciences, Inc.) enzyme solution, reacting the mixture at 4° C. overnight, and removing of λ protein phosphatase by anti […]-tag antibody agarose gel chromatography, followed by buffer exchange using a 10DG Desalting Column.
The kinase activity was measured using QuickScout Screening Assist (trade mark) MSA (commercially available kit manufactured by Carna Biosciences, Inc.) by mobility shift assay (MSA) method. The substrate of the kinase reaction was an FITC-labeled SRCtide peptide included in the kit. An assay buffer [20 mM HEPES, 0.01% Triton X-100 (Trade mark), 2 mM dithiothreitol, pH 7.5] was used and adjusted at 4 μM substrate, 20 mM MgCl2 and 200 μm ATP to obtain a substrate mixture solution. The enzyme solution was also prepared by diluting the dephosphorylated BTK to 0.46 nM using the assay buffer. The 10 mM solution of the test compound in DMSO was further diluted with DMSO to 10 levels of the concentration (0.00003 mM, 0.0001 mM, 0.0003 mM, 0.001 mM, 0.003 mM, 0.01 mM, 0.03 mM, 0.1 mM, 0.3 mM, 1 mM), each of which was subjected to a 25-fold dilution with the assay buffer to obtain the drug solutions (4% DMSO solutions). 5 μL of the drug solution or a control solution (4% DMSO-assay buffer), 5 μL of the substrate mixture solution, and 10 μL of the enzyme solution were mixed in the wells of a polypropylene 384-well plate and allowed to react at room temperature for 2 hours, and then quenched by adding 60 μL of the termination buffer included in the kit. Subsequently, the quantities of the substrates (S) and the phosphorylated substrate (P) in the reaction solution were measured using LabChip EZ Reader II system (manufactured by Caliper Life Sciences) according to the protocol of the assay kit.
The heights of the peaks of the isolated substrate and the phosphorylated substrate were represented as S and P, respectively, and a blank which contained the assay buffer instead of the enzyme solution was also measured.
The inhibition rate (%) of the test compound was calculated according to the following equation; Inhibition rate (%)=(1−(C−A)/(B−A))×100 • wherein, A, B and C represent P/(P+S) of the blank well, P/(P+S) of the control well and P/(P+S) of the compound-containing well, respectively.
The IC50 value was calculated via a regression analysis of the inhibition rate (%) and the test compound concentration (logarithmic value).

Chain of dephosphorylated BTK (Q06187 whole entry): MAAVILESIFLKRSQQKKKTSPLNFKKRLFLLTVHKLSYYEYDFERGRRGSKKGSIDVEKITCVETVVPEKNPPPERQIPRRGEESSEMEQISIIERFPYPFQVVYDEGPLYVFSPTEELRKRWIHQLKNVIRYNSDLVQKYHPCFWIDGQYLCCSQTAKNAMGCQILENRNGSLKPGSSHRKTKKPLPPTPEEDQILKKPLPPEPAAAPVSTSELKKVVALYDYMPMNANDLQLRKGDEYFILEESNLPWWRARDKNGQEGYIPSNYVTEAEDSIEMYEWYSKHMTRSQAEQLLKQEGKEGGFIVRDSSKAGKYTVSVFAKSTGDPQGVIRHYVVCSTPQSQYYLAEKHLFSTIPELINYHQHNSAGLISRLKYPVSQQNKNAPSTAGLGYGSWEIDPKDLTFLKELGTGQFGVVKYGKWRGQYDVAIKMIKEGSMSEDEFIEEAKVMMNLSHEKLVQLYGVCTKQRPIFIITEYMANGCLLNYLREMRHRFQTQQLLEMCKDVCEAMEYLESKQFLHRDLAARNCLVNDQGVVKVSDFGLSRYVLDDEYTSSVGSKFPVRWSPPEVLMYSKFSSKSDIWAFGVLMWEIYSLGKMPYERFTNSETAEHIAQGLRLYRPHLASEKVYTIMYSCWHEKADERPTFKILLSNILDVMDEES

| SMILES | IC50 [nM] |
| --- | --- |
| Nc1nc(-c2cccc(-n3ccc4cc(C5CC5)cc(F)c4c3=O)c2CO)c2nc[nH]c2n1 [Example 4, 2-[3-(2-amino-9H-purin-6-yl)-2-(hydroxymethyl)phenyl]-6-cyclopropyl-8-fluoroisoquinolin-1(2H)-one] | < 10 |
| Nc1nc(-c2cccc(-n3ccc4cc(C5CC5)cc(F)c4c3=O)c2CO)c2cc[nH]c2n1 [Example 6, 2-[3-(2-amino-7H-pyrrolo[2,3-d]pyrimidin-4-yl)-2-(hydroxymethyl)phenyl]-6-cyclopropyl-8-fluoroisoquinolin-1(2H)-one] | < 10 |
| Cc1cc2c(-c3cccc(-n4ccc5cc(C6CC6)cc(F)c5c4=O)c3CO)nc(N)nc2[nH]1 [Example 7, 2-[3-(2-amino-6-methyl-7H-pyrrolo[2,3-d]pyrimidin-4-yl)-2-(hydroxymethyl)phenyl]-6-cyclopropyl-8-fluoroisoquinolin-1(2H)-one] | < 10 |
| Nc1nc(-c2cccc(-n3ccc4cc(C5CC5)cc(F)c4c3=O)c2CO)c2cc(C3CC3)[nH]c2n1 [Example 9, 2-[3-(2-amino-6-cyclopropyl-7H-pyrrolo[2,3-d]pyrimidin-4-yl)-2-(hydroxymethyl)phenyl]-6-cyclopropyl-8-fluoroisoquinolin-1(2H)-one] | < 10 |
| Cc1n[nH]c2nc(N)nc(-c3cccc(-n4ccc5cc(C6CC6)cc(F)c5c4=O)c3CO)c12 [Example 10, 2-[3-(6-amino-3-methyl-1H-pyrazolo[3,4-d]pyrimidin-4-yl)-2-(hydroxymethyl)phenyl]-6-cyclopropyl-8-fluoroisoquinolin-1(2H)-one] | < 10 |
| Nc1nc(-c2cccc(-n3ccc4cc(C5CC5)cc(F)c4c3=O)c2CO)c2cc(CO)[nH]c2n1 [Example 11, 2-{3-[2-amino-6-(hydroxymethyl)-7H-pyrrolo[2,3-d]pyrimidin-4-yl]-2-(hydroxymethyl)phenyl}-6-cyclopropyl-8-fluoroisoquinolin-1(2H)-one] | 10 to 100 |
| Nc1nc(-c2cccc(-n3ccc4cc(C5CC5)cc(F)c4c3=O)c2CO)c2nc(C3CC3)[nH]c2n1 [Example 12, 2-[3-(2-amino-8-cyclopropyl-9H-purin-6-yl)-2-(hydroxymethyl)phenyl]-6-cyclopropyl-8-fluoroisoquinolin-1(2H)-one] | < 10 |
| Nc1nc(-c2cccc(-n3ccc4cc(C5CC5)cc(F)c4c3=O)c2CO)c2cc(-c3ccncc3)[nH]c2n1 [Example 19, 2-{3-[2-amino-6-(pyridin-4-yl)-7H-pyrrolo[2,3-d]pyrimidin-4-yl]-2-(hydroxymethyl)phenyl}-6-cyclopropyl-8-fluoroisoquinolin-1(2H)-one] | < 10 |
| COc1ccc(-c2n[nH]c3nc(N)nc(-c4cccc(-n5ccc6cc(C7CC7)cc(F)c6c5=O)c4CO)c23)cc1 [Example 20, 2-{3-[6-amino-3-(4-methoxyphenyl)-1H-pyrazolo[3,4-d]pyrimidin-4-yl]-2-(hydroxymethyl)phenyl}-6-cyclopropyl-8-fluoroisoquinolin-1(2H)-one] | < 10 |
| COc1ccccc1-c1n[nH]c2nc(N)nc(-c3cccc(-n4ccc5cc(C6CC6)cc(F)c5c4=O)c3CO)c12 [Example 21, 2-{3-[6-amino-3-(2-methoxyphenyl)-1H-pyrazolo[3,4-d]pyrimidin-4-yl]-2-(hydroxymethyl)phenyl}-6-cyclopropyl-8-fluoroisoquinolin-1(2H)-one] | < 10 |
| COc1cccc(-c2n[nH]c3nc(N)nc(-c4cccc(-n5ccc6cc(C7CC7)cc(F)c6c5=O)c4CO)c23)c1 [Example 22, 2-{3-[6-amino-3-(3-methoxyphenyl)-1H-pyrazolo[3,4-d]pyrimidin-4-yl]-2-(hydroxymethyl)phenyl}-6-cyclopropyl-8-fluoroisoquinolin-1(2H)-one] | < 10 |
| COc1ccccc1-c1nc2c(-c3cccc(-n4ccc5cc(C6CC6)cc(F)c5c4=O)c3CO)nc(N)nc2[nH]1 [Example 24, 2-{3-[2-amino-8-(2-methoxyphenyl)-9H-purin-6-yl]-2-(hydroxymethyl)phenyl}-6-cyclopropyl-8-fluoroisoquinolin-1(2H)-one] | < 10 |
| Nc1nc(-c2cccc(-n3ccc4cc(C5CC5)cc(F)c4c3=O)c2CO)c2c(-c3ccccc3)c[nH]c2n1 [Example 28, 2-[3-(2-amino-5-phenyl-7H-pyrrolo[2,3-d]pyrimidin-4-yl)-2-(hydroxymethyl)phenyl]-6-cyclopropyl-8-fluoroisoquinolin-1(2H)-one] | < 10 |
| C=CC(=O)NCc1cc2c(-c3cccc(-n4ccc5cc(C6CC6)cc(F)c5c4=O)c3CO)nc(N)nc2[nH]1 [Example 30, N-({2-amino-4-[3-(6-cyclopropyl-8-fluoro-1-oxoisoquinolin-2(1H)-yl)-2-(hydroxymethyl)phenyl]-7H-pyrrolo[2,3-d]pyrimidin-6-yl}methyl)acrylamide] | 10 to 100 |

System: OCI-Ly10 cells
Experiment: Proliferation-Inhibitory Test Against Diffuse Large-Cell B-Cell Lymphoma OCI-Ly10 Strain
Assay type: cell-based
Settings: Homo sapiens, 96 hours, alamarBlue
Procedure: OCI-Ly10 cells were cultured in IMDM medium (Iscove's Modified Dulbecco's Medium, Manufactured by Thermo Fisher Scientific Inc., hereinafter “medium”) containing 20% Fetal bovine serum and 1% penicillin-streptomycin (Nacalai Tesque, Inc.) in a 5% CO2 incubator. OCI-Ly10 cells were seeded to 96-well plate (20000 cells/well), compounds diluted with medium were added with final concentrations of 0.9 nM to 30000 nM (Final DMSO concentration, 0.3%), incubated for 96 hours and alamorBlue reagent (Thermo Fisher Scientific Inc.) was added.

| SMILES | IC50 [nM] |
| --- | --- |
| Nc1nc(-c2cccc(-n3ccc4cc(C5CC5)cc(F)c4c3=O)c2CO)c2cc(-c3ccc(CN4CCN(CC(F)(F)F)CC4)cc3)[nH]c2n1 [Example 79, 2-{3-[2-amino-6-(4-{[4-(2,2,2-trifluoroethyl)piperazin-1-yl]methyl}phenyl)-7H-pyrrolo[2,3-d]pyrimidin-4-yl]-2-(hydroxymethyl)phenyl}-6-cyclopropyl-8-fluoroisoquinolin-1(2H)-one] | 30 |
| CC1(C)CCCN(Cc2ccc(-c3cc4c(-c5cccc(-n6ccc7cc(C8CC8)cc(F)c7c6=O)c5CO)nc(N)nc4[nH]3)cc2)C1 [Example 80, 2-[3-(2-amino-6-{4-[(3,3-dimethylpiperidin-1-yl)methyl]phenyl}-7H-pyrrolo[2,3-d]pyrimidin-4-yl)-2-(hydroxymethyl)phenyl]-6-cyclopropyl-8-fluoroisoquinolin-1(2H)-one] | 70 |
| Nc1nc(-c2cccc(-n3ccc4cc(C5CC5)cc(F)c4c3=O)c2CO)c2cc(C3=CCSCC3)[nH]c2n1 [Example 82, 2-{3-[2-amino-6-(3,6-dihydro-2H-thiopyran-4-yl)-7H-pyrrolo[2,3-d]pyrimidin-4-yl]-2-(hydroxymethyl)phenyl}-6-cyclopropyl-8-fluoroisoquinolin-1(2H)-one] | 24 |
| CN(C)CC(=O)N1CC=C(c2cc3c(-c4cccc(-n5ccc6cc(C7CC7)cc(F)c6c5=O)c4CO)nc(N)nc3[nH]2)CC1 [Example 85, 2-[3-(2-amino-6-{1-[2-(dimethylamino)acetyl]-1,2,3,6-tetrahydropyridin-4-yl}-7H-pyrrolo[2,3-d]pyrimidin-4-yl)-2-(hydroxymethyl)phenyl]-6-cyclopropyl-8-fluoroisoquinolin-1(2H)-one] | 24 |
| Nc1nc(-c2cccc(-n3ccc4cc(C5CC5)cc(F)c4c3=O)c2CO)c2cc(C3=CCN(C(=O)CN4CCOCC4)CC3)[nH]c2n1 [Example 86, 2-(3-{2-amino-6-[1-(2-morpholinoacetyl)-1,2,3,6-tetrahydropyridin-4-yl]-7H-pyrrolo[2,3-d]pyrimidin-4-yl}-2-(hydroxymethyl)phenyl)-6-cyclopropyl-8-fluoroisoquinolin-1(2H)-one] | 13 |
| CC(C)S(=O)(=O)N1CC=C(c2cc3c(-c4cccc(-n5ccc6cc(C7CC7)cc(F)c6c5=O)c4CO)nc(N)nc3[nH]2)CC1 [Example 90, 2-(3-{2-amino-6-[1-(isopropylsulfonyl)-1,2,3,6-tetrahydropyridin-4-yl]-7H-pyrrolo[2,3-d]pyrimidin-4-yl}-2-(hydroxymethyl)phenyl)-6-cyclopropyl-8-fluoroisoquinolin-1(2H)-one] | 13 |
| Nc1nc(-c2cccc(-n3ccc4cc(C5CC5)cc(F)c4c3=O)c2CO)c2cc(C3=CCN(CC4CC4)CC3)[nH]c2n1 [Example 92, 2-(3-{2-amino-6-[1-(cyclopropylmethyl)-1,2,3,6-tetrahydropyridin-4-yl]-7H-pyrrolo[2,3-d]pyrimidin-4-yl}-2-(hydroxymethyl)phenyl)-6-cyclopropyl-8-fluoroisoquinolin-1(2H)-one] | 61 |
